Measurements reported in patent US20240189388A1, “MEDICATION FOR TREATING LUNG INJURY” (SHANGHAI SEME CELL TECHNOLOGY CO., LTD., priority 2021, published 2024).

How the values were obtained:
Type in all cases: in vivo, Sprague-Dawley rats
rats with a lung injury [1] = assay: BALF inflammatory factors and total protein (Example 2)
Experimental: (§1) D0: The animals in the normal control group were intraperitoneally injected with sodium chloride injection (1 ml/kg), while the animals in other groups were intraperitoneally injected with lipopolysaccharides (1 mg/kg, 1 ml/kg).
(§2) D1: After 16 h (+30 min) of intraperitoneal injection, the animals were anesthetized by inhaling isoflurane. The animals in the normal control group were nebulized with sodium chloride injection (1 mL/kg) in the trachea, while the animals in other groups were nebulized with lipopolysaccharides (5 mg/kg, 1 ml/kg) in the trachea.
(§3) Administration frequency and duration: On D1, the animals were administered for the first time within 3 h after the intratracheal nebulization with the modeling reagent (LPS); and on D2, the animals were administered for the second time. The interval between the two administrations was about 24 h (+20 min).
Sample collection: After the animals were euthanatized, the skin and tissues of the neck and chest were incised to expose the trachea, bronchi, and lungs. The bronchi in the right lung were separated and ligated. A suture was threaded under the trachea, a ½ incision was made between cartilage rings of the trachea at an appropriate position under the thyroid cartilage, a trachea cannula was slowly inserted along the incision into the airway to a left bronchus, and the inserted cannula was fastened with the trachea by using the threaded suture at an appropriate position in a centripetal direction of the incision. 3 ml of PBS buffer was slowly injected with a syringe for bronchoalveolar lavage. The lavage was repeated 3 times, with each remaining for about 10 seconds. The lavage solution was collected into a centrifuge tube of appropriate capacity.
BALF treatment: The collected lavage solution was centrifuged at 4° C. and approximately 2000 rpm for 20 min. The supernatant was stored below −60° C. for later use. The precipitate was re-suspended with I mL of PBS buffer for count and classification of white blood cells. The supernatant after BALF centrifugation was managed as a sample by using a Watson LIMS7.5 system.
Test of total protein content in the BALF: At the end of the experiment, the total protein content in the BALF was tested by a total protein test kit (BCA method).
Test of inflammatory factors in the BALF: At the end of the experiment, the inflammatory factors (IL-1β, IL-6, IL-10, and TNF-α) in the BALF were tested by an inflammatory factor test kit.

rats with a lung injury [2] = assay: Histopathological examination of lung, 5-grade method (Example 2)
Experimental: as §1, §2, §3
General observation: All animals in each group (including dead animals) were dissected and their tissues were stored. The animals that died during non-working hours were stored in the 2° C.-8° C. refrigerator and dissected as soon as possible within 24 hours. After dissecting and retaining tissues, animal carcasses were disposed of as medical waste.
During the autopsy, whether the lungs, trachea, and bronchi of the animals were abnormal were observed. The middle lobe of the right lung was incised and weighed for calculating a wet/dry weight ratio. The remaining tissues and bronchi of the right lung were fixed in a 10% neutral buffered formalin solution, followed by paraffin embedding, slicing, section preparation, and HE staining for pathological morphological observation of lung tissues. Standard terminologies were used for diagnosis and classification, and the lung tissues were pathologically examined by a 5-grade method (slight, mild, moderate, obvious, and severe).

rats with a lung injury [3] = assay: Wet/dry ratio of the lung (Example 2)
Experimental: as §1, §2, §3
During the autopsy, whether the lungs, trachea, and bronchi of the animals were abnormal were observed. […]
Foreign matters such as blood and tissue fluid on the surface of the middle lobe tissues of the right lung were wiped with a paper towel, the right lung was weighed, then the middle lobe tissues of the right lung were placed in a 60° C. oven for 72 h, the right lung was weighed again, and the wet/dry weight ratio of the lung was calculated. […]

rats with a lung injury [4] = assay: Inflammatory factors in serum (Example 2)
Experimental: as §1, §2, §3
Collection of blood sample: About 1 mL of abdominal aortic blood of each animal was collected into a centrifuge tube containing a separation gel and a coagulant.
Treatment of blood sample: After collection, the blood sample was stored and transported at room temperature, and centrifuged within 2 hours under the conditions: 3000 g, room temperature, and 10 minutes. The serum after centrifugation was transferred to a new labeled centrifuge tube and divided into 2 tubes, which were temporarily stored below −60° C. At the end of the experiment, inflammatory factors (IL-1β, IL-6, IL-10, and TNF-α) in the serum were tested by a reagent kit. The blood sample was managed by the Watson LIMS7.5 system.

rats with a lung injury [5] = assay: Blood gas test, LPS lung injury rats (Example 2)
Experimental: as §1, §2, §3
Test time: the day after the second administration (D3)
Sample collection: The rats were anesthetized by intraperitoneal injection with chloral hydrate (350 mg/kg, 100 mg/mL), and their abdominal midline was longitudinally incised to separate the abdominal aorta. About 0.2 mL of arterial blood was collected with an arterial blood sampler. A syringe in the blood sampler was rubbed in the palm and turned upside down for 5 seconds to ensure that the blood was never returned to the blood sampler for blood mixing treatment.
Testing method: After the arterial blood was collected, a needle was gently inserted into a blood injection port of a test card, and the blood was gently pushed in and filled a sample filling tube. When the blood reached an adding position, the adding of the sample was stopped, a lid was closed, and the blood automatically entered the test tube. The test card was inserted into a blood gas analyzer to wait for test results.
Test indicators: PO2 (mmHg), PCO2 (mmHg), pH, and sO2%.

[6] = D3, 0.75 mg/kg i.v. twice, 6 rats, x ± SD
[7] = test sample group vs model control group
[8] = ++ = mild, test sample group, 6 rats, 0.75 mg/kg
[9] = +++ = moderate, test sample group, 6 rats, 0.75 mg/kg
[10] = ++++ = obvious, test sample group, 6 rats, 0.75 mg/kg
[11] = +++++ = severe, test sample group, 6 rats, 0.75 mg/kg
[12] = − = no lesion, test sample group, 6 rats, 0.75 mg/kg
[13] = arterial blood, D3, 0.75 mg/kg i.v. twice, 6 rats, x ± SD

Substance: Annexin A5
- IL-1β in BALF (rats with a lung injury [1]; [6]): 107.45 ± 51.12 pg/mL
- IL-6 in BALF (rats with a lung injury [1]; [6]): 14.42 ± 23.92 pg/mL
- IL-10 in BALF (rats with a lung injury [1]; [6]): 0.92 ± 2.23 pg/mL
- TNF-α in BALF (rats with a lung injury [1]; [6]): 4.54 ± 4.63 pg/mL
- Total proteins in BALF (rats with a lung injury [1]; [6]): 461.31 ± 187.36 µg/mL
- Change of BALF white blood cell counts, total protein and inflammatory factors (rats with a lung injury [1]; [7]): significantly decreased
- Bleeding of the lung under a microscope (rats with a lung injury [2]; 0.75 mg/kg i.v. twice, D3): mildly
- Infiltration of the lung by inflammatory cells under a microscope (rats with a lung injury [2]; 0.75 mg/kg i.v. twice, D3): moderately to obviously
- Proliferation of alveolar epithelial cells under a microscope (rats with a lung injury [2]; 0.75 mg/kg i.v. twice, D3): mild to moderate
- Degree of alveolar wall thickening lesion: number of animals with grade ++ (rats with a lung injury [2]; [8]): 3
- Degree of inflammatory cell infiltrating lesion: number of animals with grade ++ (rats with a lung injury [2]; [8]): 0
- Degree of alveolar wall thickening lesion: number of animals with grade +++ (rats with a lung injury [2]; [9]): 3
- Degree of inflammatory cell infiltrating lesion: number of animals with grade +++ (rats with a lung injury [2]; [9]): 2
- Degree of alveolar wall thickening lesion: number of animals with grade ++++ (rats with a lung injury [2]; [10]): 0
- Degree of inflammatory cell infiltrating lesion: number of animals with grade ++++ (rats with a lung injury [2]; [10]): 4
- Degree of alveolar wall thickening lesion: number of animals with grade +++++ (rats with a lung injury [2]; [11]): 0
- Degree of inflammatory cell infiltrating lesion: number of animals with grade +++++ (rats with a lung injury [2]; [11]): 0
- Change of inflammatory cell infiltrating lesions (rats with a lung injury [2]; in all rats, vs model): changed from severe and obvious to obvious and moderate
- Change of alveolar wall thickness (rats with a lung injury [2]; in half of the rats, vs model): changed from moderate to mild
- Degree of lung lesions (rats with a lung injury [2]; [7]): lower than that of the model control group
- Degree of alveolar wall thickening lesion: number of animals with grade − (rats with a lung injury [2]; [12]): 0
- Degree of inflammatory cell infiltrating lesion: number of animals with grade − (rats with a lung injury [2]; [12]): 0
- Wet/dry ratio of the lung (rats with a lung injury [3]; middle lobe of right lung, 0.75 mg/kg i.v. twice, 6 rats, x ± SD): 4.68 ± 0.08
- Change of wet/dry ratio of the lung (rats with a lung injury [3]; test sample group): decreased
- IL-1β in serum (rats with a lung injury [4]; [6]): 15.41 ± 25.29 pg/mL
- IL-6 in serum (rats with a lung injury [4]; [6]): 0.00 ± 0.00 pg/mL
- IL-10 in serum (rats with a lung injury [4]; [6]): 18.35 ± 9.84 pg/mL
- TNF-α in serum (rats with a lung injury [4]; [6]): 0.00 ± 0.00 pg/mL
- Change of inflammatory factors in the serum (rats with a lung injury [4]; [7]): significantly decreased to similar levels as the normal control group
- PCO2 (rats with a lung injury [5]; [13]): 46.63 ± 6.17 mmHg
- PO2 (rats with a lung injury [5]; [13]): 82.5 ± 8.7 mmHg
- pH (rats with a lung injury [5]; [13]): 7.372 ± 0.049
- sO2 % (rats with a lung injury [5]; [13]): 95.5 ± 1.0 %
- Change in the pH indicator (rats with a lung injury [5]; test sample group): no significant change
- Change of PO2, sO2% and PCO2 after administration (rats with a lung injury [5]; [7]): all increased with statistical differences
